The source of these data is US6623933B1 (priority 1999, dated 2003).

Series [1] relates to primary cultures of rat hippocampal neurons. As to conditions: Weaver et al. 1997; cited from earlier work.
The test system is the same in series [2]. Put plainly: NMDA-induced neuronal death, trypan blue exclusion. Type of series: cell-based. The procedure: (§1) Principally neuronal cultures were prepared from hippocampal tissue of fetal Sprague-Dawley rats on day 18 of embryonic development, as previously described (Brewer et al., Brain Research 494: 65-74 (1989)). Briefly, hippocampal cells were dissociated by trituration in Ca^2+/Mg^2+-free Hank's basic salt solution (Gibco) supplemented with 4.2 mM bicarbonate, 1 mM sodium pyruvate, 20 mM HEPES, 3 mg/ml bovine serum albumin (BSA). Dissociated cells were then pelleted by centrifugation (500×g, 4 min). […] Cells were then plated onto poly-L-lysine-coated 24-well culture dishes (Nunclon) at a density of 15,000 cell/cm^2 and maintained in a humidified atmosphere containing 5% CO2/95% air at 37° C. After 48 h, nonneuronal cell division was inhibited by a 48 h exposure to 1 μM cytosine arabinoside. Cultures were subsequently maintained in serum-free DMEM plus defined components and were used for experiments 16 to 24 days after plating.
(§2) Steroids were dissolved in DMSO (0.5% final concentration), and all treatment media contained 0.5% DMSO. […] Following exposure, cultures were washed 3 times with medium from sister cultures (conditioned medium). After the final wash, steroid or vehicle was reintroduced. Drugs were added to cultures in 25 μl of conditioned medium to yield a final volume of 0.25 ml per well. Except where otherwise noted, final steroid concentration was 100 μM.
The ability of neurons to exclude trypan blue was used to quantitate cell viability (Dawson et al., Proc Natl Acad Sci USA 88: 6368-6371 (1991)). […] Cultures were then fixed with 4% paraformaldehyde in PBS for 30 min, at whichtime the fixative was replaced with PBS. The number of stained and unstained neurons were counted in 4 high-power fields per culture well, using an inverted phase contrast microscope under both bright field and phase contrast settings. Experiments were performed in triplicate, and all assessments were made with the experimenter blind to the treatment of each culture well. Percent cell death is expressed as follows: (number of trypan blue stained neurons)/(total number of neurons)×100%.
(§3) All data are expressed as mean±standard error of the mean. Statistical significance was evaluated using 95% confidence limits unless otherwise noted.

Series [3] deals with T1, NR1100+NR2A NMDA receptor (Rattus norvegicus, UniProt P35439+Q00959).
T1 construct: expressed in transfected cells; host or cells: Xenopus oocytes co-injected with NR1100 and NR2A cRNA
The series is described as follows: NMDA-induced current (INMDA), Xenopus oocytes, Example 2. The format is cell-based. As to conditions: 100 μM NMDA, 100 μM steroid. The procedure: NR1100 (NR1G) and NR2A clones were kindly provided by Dr. R. S. Zukin (Albert Einstein College of Medicine, New York, N.Y.) and Dr. S. Nakanishi (Faculty of Medicine, Kyoto University, Kyoto, Japan), respectively. mRNA was prepared through in vitro transcription of NR1100 and NR2A cDNAs using the mMessage mMachine kit (Ambion, Tex.). On the day following isolation, batches of 20-40 selected Xenopus oocytes were injected with 50 nl of prepared RNA solution (0.5 ng NR1100 and 5 ng of NR2A mRNA/oocyte). Oocytes were maintained in glass petri dishes containing Barth's solution (84 mM NaCl, 1 mM KCl, 2.4 mM NaHCO3, 0.82 mM MgSO4, 0.41 mM CaCl2, 0.33 mM Ca(NO3)2, 2.5 mM pyruvate, 0.1 mg/ml gentamycin, 7.5 mM Tris/HCl, pH 7.4) in an incubator at 18° C. Oocytes were used for electrophysiological experiments 4-10 days after injection.
Recordings from oocytes were obtained using the two electrode voltage-clamp mode with an Axoclamp-2A amplifier (Axon Instruments). The resistance of microelectrodes, pulled from glass capillaries and filled with 3 M KCl solution, was 2.5-3.5 M. Membrane potential was clamped at −70 mV. Drugs were applied by a gravity-driven external perfusion system. Drug application and data acquisition were carried out with custom-written software implemented in the SuperScopeII programming language (GW Instruments, Somerville, Mass.).
The degree of modulation of NMDA-induced Ca^2+ influx, cell death, and currents is expressed as the percent change, defined as (I′/I−1)×100%, where I and I′ are the NMDA-induced responses in the absence and presence of modulator, respectively. All data are expressed as mean±standard error of the mean. Statistical significance was evaluated using 95% confidence limits unless otherwise noted.

Series [4] in a line: Precipitation in assay buffer / culture medium. Type of series: physicochemical. As to conditions: 0.5% DMSO, above 50 μM (3α5β) and 20 μM (pregnenolone). The procedure: Steroids were initially dissolved in 100% DMSO, then diluted into assay buffer at a final DMSO concentration of 0.5% and sonicated for 20 min. All other solutions also contained 0.5% DMSO. Except where otherwise noted, the final steroid concentration was 100 μM.
as §2

The test system of series [5] is primary cultures of rat hippocampal neurons. Put plainly: NMDA-induced increase in [Ca2+]i, Fluo-3 AM. The format is cell-based. How it is done:
as §1
DMSO was also added to controls to maintain a constant final DMSO concentration of […].
as §3

For series [6], the system named is middle cerebral artery occlusion in rats. As to conditions: Weaver et al. 1997; cited from earlier work.

T1 sequence (Q00959 23-1464, other chains not shown): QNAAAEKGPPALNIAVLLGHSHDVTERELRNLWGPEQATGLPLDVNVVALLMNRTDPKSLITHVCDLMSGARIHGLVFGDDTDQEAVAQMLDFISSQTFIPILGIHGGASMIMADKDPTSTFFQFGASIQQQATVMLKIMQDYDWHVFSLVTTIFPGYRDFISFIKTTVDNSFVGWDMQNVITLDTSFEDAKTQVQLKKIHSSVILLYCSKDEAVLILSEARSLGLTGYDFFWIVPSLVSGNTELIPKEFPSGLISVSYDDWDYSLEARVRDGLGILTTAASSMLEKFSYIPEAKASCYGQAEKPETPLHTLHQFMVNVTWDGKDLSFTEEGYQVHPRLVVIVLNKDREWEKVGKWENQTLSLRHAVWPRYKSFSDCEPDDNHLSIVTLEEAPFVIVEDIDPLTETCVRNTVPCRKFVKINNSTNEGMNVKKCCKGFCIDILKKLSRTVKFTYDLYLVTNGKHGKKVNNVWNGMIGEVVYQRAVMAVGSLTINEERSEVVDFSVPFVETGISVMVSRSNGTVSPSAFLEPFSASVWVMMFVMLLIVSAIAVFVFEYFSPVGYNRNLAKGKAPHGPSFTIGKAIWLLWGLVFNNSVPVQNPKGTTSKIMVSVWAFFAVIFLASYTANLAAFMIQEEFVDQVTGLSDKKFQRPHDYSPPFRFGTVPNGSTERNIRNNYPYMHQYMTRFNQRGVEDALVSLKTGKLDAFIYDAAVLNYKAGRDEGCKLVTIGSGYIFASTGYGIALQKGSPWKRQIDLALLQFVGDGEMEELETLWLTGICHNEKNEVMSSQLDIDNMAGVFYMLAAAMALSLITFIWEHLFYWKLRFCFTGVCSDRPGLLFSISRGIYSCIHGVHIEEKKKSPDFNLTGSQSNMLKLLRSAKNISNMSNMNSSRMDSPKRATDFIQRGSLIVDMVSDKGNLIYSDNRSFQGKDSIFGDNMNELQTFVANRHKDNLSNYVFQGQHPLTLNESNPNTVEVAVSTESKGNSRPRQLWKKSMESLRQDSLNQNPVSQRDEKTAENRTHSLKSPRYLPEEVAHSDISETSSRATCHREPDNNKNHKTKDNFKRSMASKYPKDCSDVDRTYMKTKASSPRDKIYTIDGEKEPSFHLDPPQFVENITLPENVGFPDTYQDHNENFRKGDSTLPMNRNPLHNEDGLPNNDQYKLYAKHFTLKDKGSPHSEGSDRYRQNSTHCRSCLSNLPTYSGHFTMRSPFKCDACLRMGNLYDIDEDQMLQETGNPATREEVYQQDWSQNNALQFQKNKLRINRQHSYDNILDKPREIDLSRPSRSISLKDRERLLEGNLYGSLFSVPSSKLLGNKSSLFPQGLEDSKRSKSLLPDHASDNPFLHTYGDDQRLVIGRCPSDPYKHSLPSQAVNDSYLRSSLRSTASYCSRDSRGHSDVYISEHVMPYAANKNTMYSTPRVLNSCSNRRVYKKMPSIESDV

In the case of `C[C@]12CC[C@@H]3c4ccc(O)cc4CC[C@H]3[C@@H]1CC[C@@H]2O` [17β-estradiol], in series [1], the “neuroprotection against NMDA-induced neuronal death” value is “neuroprotective against NMDA-induced neuronal death”.

Turning to `CC(=O)[C@H]1CC[C@H]2[C@@H]3CC=C4C[C@@H](O)CC[C@]4(C)[C@H]3CC[C@]12C` [pregnenolone], the “exacerbation of NMDA-induced neuronal death” value in series [2] (acute NMDA, steroid 100 μM (pregnenolone 20 μM)) is reported as “ineffective”. The “potentiation of INMDA” value in series [3] was 5±2%. In addition, the “precipitation at higher concentrations” value in series [4] is “higher concentrations tended to precipitate”. For the same compound, the “potentiation of NMDA-induced Ca2+ accumulation” value in series [5] is recorded as “without effect”.

pregnanolone hemisuccinate [3α5βHS]: the “inhibition of NMDA-induced neuronal death” value in series [2] (acute 30 μM NMDA, steroid 100 μM (3α5β 50 μM)) stood at 54±3%. Besides, the “inhibition of INMDA” value in series [3] is “about equally effective in inhibiting INMDA”. For the same compound, the “inhibition of neuronal death after middle cerebral artery occlusion” value in series [6] is “effective at inhibiting the neuronal death”. The “reduction of NMDA-induced rise in [Ca2+]i” value in series [5] (5 μM NMDA, steroid 100 μM (3α5β 50 μM)) is listed as “approximately 40%”.
